This is an account of results in US20170137473A1, “FLUOROGEN ACTIVATING AND SHIFTING TAG (FAST)” (PARIS SCIENCES ET LETTRE - QUARTIER LATIN, priority 2014, published 2017).

For data set [1], the system named is wild-type bacteria, yeast and mammalian cells. The data set can be described thus: Fluorescence background of fluorogen in wild-type cells (flow cytometry, confocal). Type of data set: cell-based. As for the experimental part: (§1) Flow cytometry analysis was performed on an Accuri C6 (BD Biosciences). Confocal micrographs were acquired on a Zeiss LSM 710 Laser Scanning Microscope equipped with a Plan Apochromat 63×/1.4 NA oil immersion objective. ZEN software was used to collect the data. Images were analyzed with Image J. Spinning-disk confocal micrographs were acquired on a Nikon Eclipse Ti microscope equipped with a 4×/0.15 N.A objective and a coolSnap HQ2/CDDcamera (Princeton Instrument). Metamorph premier 7.6 software (Molecular Devices) was used to collect the data.
(§2) Labeling of Y-FAST with HBR and HMBR in cells was then analyzed by flow cytometry in three different expression systems: yeast, E. coli and mammalian cells (HeLa cells). The fluorescence was compared to wild-type cells or cells expressing wild-type PYP. […] The performance and selectivity of Y-FAST labeling in mammalian cells, yeast and bacteria was furthermore confirmed by confocal microscopy (FIG. 14d and FIGS. 15 c to f and FIG. 16).

A further data set concerns zebrafish embryos. The data set can be described thus: Fitness of zebrafish embryos incubated with HMBR during development. Type of data set: in vivo. Particulars: incubation from 50% epiboly to 24 hpf; data not shown.
The next data set concerns the target T1, wild-type PYP (Halorhodospira halophila, UniProt P16113, C69G).
T1 construct: fusion partner differs by host: Aga2p (yeast surface display, pAG14); His-tag-ENLYFQG (E. coli, pET28a); expressed in transfected cells
The data set can be described thus: Fluorogen labeling of cells expressing wild-type PYP. Type of data set: cell-based. As for the experimental part: as §1, §2

The subject of a further data set is HeLa cells. The data set can be described thus: LIVE/DEAD viability assay (calceinAM, EthD1) of HeLa cells. In kind it is cell-based. The note with it: incubated 5 h at 5, 10 and 20 μM; concentrations used for imaging. As for the experimental part:
Cell viability was tested by using calceinAM and EthD1 (LIVE/DEAD® viability/cytotoxicity assay kit). CalceinAM is a cell-permeant profluorophore cleaved by intracellular esterases releasing the green fluorescent polyanionic calcein in live cells. EthD1 (Ethidium homodimer 1) is a non cell-permeant nucleic acid red fluorescent stain that enters only cells with damaged membranes and undergoes a fluorescence enhancement upon binding to nucleic acids, thereby producing a bright red fluorescence in dead cells. Control experiments with HeLa cells non-incubated with dye (top left, live control) or incubated for 1 h with 1% hydrogen peroxyde (top right, dead control) are shown. Cell fluorescence was evaluated by confocal microscopy.

Data set [2] has as its target T2, Y-FAST (Halorhodospira halophila, UniProt P16113, C69G/D97P/F96I/M100R/Q99S/T101G/T95M/Y94W/Y98T).
T2 construct: expressed in transfected cells; host or cells: HeLa cells, transiently transfected (pAG96, pIRES vector)
In kind it is cell-based. As for the experimental part:
FIG. 21 is a set of graphs and images showing that Y-FAST fluorescence can be switched on and off by addition and withdrawal of the fluorogenic ligand. (a,b) HeLa cells expressing mCherry-Y-FAST were grown in a microfluidic channel and repeatedly incubated with HMBR-containing culture medium for 20 s and HMBR-free culture medium for 40 s. A multifunctional fluidic controller enabled several cycles of labeling/unlabeling. […] (a) Confocal timelapse showing two cycles of labeling/unlabeling (Ex/Em 488/493-575 nm). (b) Temporal evolution of the cell fluorescence upon addition (+) and removal (−) of HMBR. (c) Confocal micrographs of live HeLa cells expressing Dronpa-NLS (nucleus) and lyn11-Y-FAST (membrane) showing sequential imaging of nuclear Dronpa and membrane-anchored Y-FAST thanks to sequential on/off labeling of Y-FAST intercalated with on/off photoswitching of Dronpa (Ex/Em 488/493-797 nm). […] Scale bars 10 μm.
FIG. 22 is a set of graphs and images showing that Y-FAST enables the control of the density of fluorescent labeling independently of the expression level. […] Data represents mean±SD (n=15).
A rapid prototyping technique has been used for the device fabrication. A digital cutting machine (Graphtec, CE6000) was used to produce a 0.5 mm wide microfluidic channel in a 0.5 mm thick silicone layer, which was supported by a 50 μm thick plastic film. After removing the plastic film and oxygen plasma treatment, the silicone layer was bonded to a 5 mm thick layer of polydimethylsiloxane (PDMS) which was prepared by casting a mixture of A and B components of RTV 615 (GE, France) at a 10:1 w/w ratio on a flat silicon wafer and curing it at 80° C. for 2 h. Then, inlet and outlet holes were punched with a metal tube for connections. Afterward, the silicone-PDMS complex was bonded to a 160 μm thick cover slide after oxygen plasma treatment. Finally, the whole device was put in a 80° C. oven for 10 min. Before cell seeding, the device was sterilized under UV exposure for more than 30 min. […]

Data set [3] addresses T2, Y-FAST. The data set can be described thus: Labeling of Y-FAST in living cells (yeast, E. coli, HeLa) by flow cytometry. In kind it is cell-based. As for the experimental part: as §1, §2

T2 sequence (P16113 whole entry C69G/Y94W/T95M/F96I/D97P/Y98T/Q99S/M100R/T101G): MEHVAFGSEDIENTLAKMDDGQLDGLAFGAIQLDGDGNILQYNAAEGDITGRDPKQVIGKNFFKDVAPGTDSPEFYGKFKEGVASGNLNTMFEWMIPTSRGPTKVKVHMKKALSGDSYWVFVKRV
T1 sequence (P16113 whole entry C69G, the tested form may be a part): as the sequence (P16113 whole entry C69G/Y94W/T95M/F96I/D97P/Y98T/Q99S/M100R/T101G) above, with W94Y, M95T, I96F, P97D, T98Y, S99Q, R100M, G101T counted along it

For `Cc1cc(/C=C2\SC(=S)NC2=O)ccc1O` [HMBR, (Z)-5-(4-hydroxy-3-methylbenzylidene)-2-thioxo-1,3-thiazolidin-4-one], in data set [1], the “fluorescence background in wild-type cells” value is reported as “no or negligible fluorescence background”. Besides, the “toxicity for zebrafish embryos (mortality, development)” value in the data set on zebrafish embryos is “did not induce any mortality or perturbation in the development”. For the same compound, the “binding to wild-type PYP” value on wild-type PYP is given as “do not bind”. In the data set with HeLa cells, the “toxicity for HeLa cells” value is “non-toxic”. The “time of labeling in cells” value on Y-FAST [2] (5 μM HMBR, microfluidic channel) is “within about ten seconds”. The “concentration sufficient for full labeling in cells” value at Y-FAST [2] (HeLa cells expressing mCherry-Y-FAST) stood at 1 µM. Also, the cell permeability entry on Y-FAST [2] (inferred from labeling time in HeLa cells) is “good cell permeability”. In addition, the “fluorescent labeling of Y-FAST in living cells, comparison” value at Y-FAST [3] is recorded as “outperforms HBR”.
